“Also recorded” adds a separate entry of the source. Read-outs that look alike come from different tables or passages of the source.

Here are results for one compound from article PMC10489644, “In Vitro Evaluation of the Potential for Drug Interactions by Salidroside” (Nutrients, 2023).

Data set [1] concerns CYP3A4/5. Particulars: microsomes.
Method: (§1) Incubation without 30 min pre-incubation, 178.5 µL of liver microsomes working was pre-incubated in a 37 °C water bath for 30 min. After the pre-incubation, 1.5 μL of test compound or control compound working solution, 60 μL of substrate working solution, and 60 μL of NADPH working solution were added; then, the reaction mixture was mixed by pipetting up and down and then incubated at 37 °C for 10 min. Incubation with 30 min pre-incubation. Next, 1.5 μL of test compound or control compound working solutions and 60 μL of NADPH working solution were added into 178.5 μL of liver microsome working solution, then the reaction mixture was mixed by pipetting up and down and then pre-incubated at 37 °C for 30 min. […]
(§2) For competitive and time-dependent CYP inhibition, the peak area ratios (PAR) of analyte/internal standard were used to semi-quantitatively determine the concentration of acetaminophen (CYP1A2 activity), 4’-hydroxydiclofenac (CYP2C9), 4’-hydroxymephenytoin (CYP2C19), dextrorphan (CYP2D6), 1’-hydroxymidazolam (CYP3A4), 6β-hydroxytestosterone (CYP3A4), hydroxybupropion (CYP2B6), and N-desethylamodiaquine (CYP2C8), with terfenadine as the internal standard by LC-MS/MS method. The HPLC-MS system utilized an Acquity UPLC system and Sciex API 4000 mass spectrometer in ESI positive mode, with quantitation employing MRM. […]
For data set [2], the target named is T1, CYP2B6 (Homo sapiens, UniProt P20813).
T1 sequence (P20813 1-491): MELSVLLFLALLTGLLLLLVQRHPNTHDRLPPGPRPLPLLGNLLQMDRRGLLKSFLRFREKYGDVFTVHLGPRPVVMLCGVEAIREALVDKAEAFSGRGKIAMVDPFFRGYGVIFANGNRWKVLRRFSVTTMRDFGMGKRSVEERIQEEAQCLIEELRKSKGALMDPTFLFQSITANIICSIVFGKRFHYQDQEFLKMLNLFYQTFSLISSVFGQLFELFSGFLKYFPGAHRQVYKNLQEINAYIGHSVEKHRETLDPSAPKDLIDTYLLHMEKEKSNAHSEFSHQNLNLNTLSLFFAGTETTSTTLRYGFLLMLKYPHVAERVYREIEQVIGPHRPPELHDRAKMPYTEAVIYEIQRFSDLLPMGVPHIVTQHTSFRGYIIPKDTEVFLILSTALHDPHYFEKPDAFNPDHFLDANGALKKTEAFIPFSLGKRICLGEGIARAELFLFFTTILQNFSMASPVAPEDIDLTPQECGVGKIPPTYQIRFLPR
Particulars: microsomes.
Method: as §1, §2

Details of data set [3]: method as in PMID 35684130. Particulars: multiple oral dose rat study; cited from earlier work.
Data set [4] deals with MAO-B. Further details: method as in PMID 19168123. Particulars: isolated compound at 10 µM; cited from earlier work.
Data set [5] has as its target T1, CYP2B6. In words: biochemical.
Method: as §1, §2
For data set [6], the system named is CYP3A4. In words: in vitro. Particulars: human, Mean Fold Induction.
Data set [7] has as its system MAO-A. Further details: method as in PMID 19168123. Conditions: isolated compound at 10 µM; cited from earlier work.
The target of data set [8] is T2, CYP2C8 (Homo sapiens, UniProt P10632).
T2 sequence (P10632 1-490): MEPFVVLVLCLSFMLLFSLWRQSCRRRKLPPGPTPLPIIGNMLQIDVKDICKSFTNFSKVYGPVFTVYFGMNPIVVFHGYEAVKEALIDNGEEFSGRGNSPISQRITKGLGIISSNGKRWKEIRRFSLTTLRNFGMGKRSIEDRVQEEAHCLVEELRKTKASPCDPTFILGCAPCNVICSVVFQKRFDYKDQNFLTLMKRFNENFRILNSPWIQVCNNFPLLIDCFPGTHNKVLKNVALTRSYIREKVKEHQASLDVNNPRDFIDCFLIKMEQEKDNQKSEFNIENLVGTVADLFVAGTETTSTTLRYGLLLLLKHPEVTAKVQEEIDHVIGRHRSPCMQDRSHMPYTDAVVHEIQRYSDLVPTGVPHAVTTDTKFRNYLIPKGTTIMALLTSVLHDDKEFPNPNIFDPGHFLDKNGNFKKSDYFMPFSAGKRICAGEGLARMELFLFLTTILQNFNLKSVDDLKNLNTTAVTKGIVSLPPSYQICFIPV
In words: biochemical.
Method: as §1, §2

Data set [9] deals with T2, CYP2C8. Conditions: microsomes.
Method: as §1, §2
Data set [10] has as its target CYP2D6 (Homo sapiens, UniProt P10635). Briefly: biochemical.
Method: Test compound/controls working solution or DMSO were added in 238.5 µL of liver microsomes working solution, mixed well by pipetting several times and pre-incubated in a 37 °C shaking water bath for 5 min. Following the pre-incubation, 60 µL of NADPH working solution were added, mixed well by pipetting several times, and incubated in a 37 °C shaking water bath for 10 min. Following the incubation, 300 µL of quenching solution were immediately added and vortexed for ~20 s to mix. All samples were centrifuged at 4000 rpm for 15 min at 4 °C and then the supernatant was transferred for LC-MS/MS analysis. IC50 values were determined by the Hill slope equation using Graph Pad Prism.
For competitive and time-dependent CYP inhibition, the peak area ratios (PAR) of analyte/internal standard were used to semi-quantitatively determine the concentration of acetaminophen (CYP1A2 activity), 4’-hydroxydiclofenac (CYP2C9), 4’-hydroxymephenytoin (CYP2C19), dextrorphan (CYP2D6), 1’-hydroxymidazolam (CYP3A4), 6β-hydroxytestosterone (CYP3A4), hydroxybupropion (CYP2B6), and N-desethylamodiaquine (CYP2C8), with terfenadine as the internal standard by LC-MS/MS method. The HPLC-MS system utilized an Acquity UPLC system and Sciex API 4000 mass spectrometer in ESI positive mode, with quantitation employing MRM. Samples were injected onto an Atlantis T3 5 μM column (2.1 x 50 mm). […]
Data set [11] deals with T3, OATP1B1 (Homo sapiens, UniProt Q9Y6L6).
T3 sequence (Q9Y6L6 1-691): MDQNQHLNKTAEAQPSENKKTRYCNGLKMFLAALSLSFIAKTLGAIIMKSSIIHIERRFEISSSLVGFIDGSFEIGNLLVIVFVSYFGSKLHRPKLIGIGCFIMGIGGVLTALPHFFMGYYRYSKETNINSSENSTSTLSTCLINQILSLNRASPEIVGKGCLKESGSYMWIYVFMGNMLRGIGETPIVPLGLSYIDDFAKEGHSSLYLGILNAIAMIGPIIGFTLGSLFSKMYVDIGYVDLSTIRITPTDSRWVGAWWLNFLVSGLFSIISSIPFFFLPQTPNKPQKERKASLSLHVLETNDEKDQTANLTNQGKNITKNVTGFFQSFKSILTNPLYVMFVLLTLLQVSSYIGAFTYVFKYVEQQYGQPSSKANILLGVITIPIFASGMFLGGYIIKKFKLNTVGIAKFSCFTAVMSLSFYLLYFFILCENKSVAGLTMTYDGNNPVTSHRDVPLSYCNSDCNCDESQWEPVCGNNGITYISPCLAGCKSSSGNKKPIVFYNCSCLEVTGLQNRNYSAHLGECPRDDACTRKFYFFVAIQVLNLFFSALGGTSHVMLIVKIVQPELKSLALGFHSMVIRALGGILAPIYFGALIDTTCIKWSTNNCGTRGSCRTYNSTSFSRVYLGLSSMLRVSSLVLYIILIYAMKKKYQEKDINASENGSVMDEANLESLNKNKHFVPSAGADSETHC
In words: Uptake transport inhibition in HEK293-OATP1B1 cells. Here is the method:
HEK293-OATP1B1 and OATP1B3 cells were diluted to 1 × 10^6 cells/mL with DMEM supplemented with 1% non-essential amino acid (NEAA), 10% fetal bovine serum (FBS), 1% PS solution (100 U/mL penicillin-G and 100 μg/mL streptomycin), and seeded on a 96-well BioCoat™ poly-d-lysine plate at a density of 1 × 10^6 cells/mL. […] Once the cells were anchored on the plate, the cell culture was replaced with DMEM containing 10% FBS and 1% PS solution (100 U/mL penicillin-G and 100 μg/mL streptomycin solution) and cultured one day for the uptake and inhibition studies. The cell culture medium was removed from the 96-well plate, then rinsed twice with 0.1 mL/well of pre-warmed transport buffer. The transporter cells containing pre-incubation solution were pre-incubated at 37 °C for 30 min. Then the pre-incubation solution was removed and replaced with 0.1 mL/well of dosing solution containing a substrate, respectively (blank transporter buffer containing a substrate, transport buffer containing a substrate and PC, and transport buffer containing a substrate and salidroside). Then, the transporter cells were incubated at 37 °C for 2 min. After incubation, all solutions in the cells were discarded and rinsed with 0.10 mL/well of ice-cold transport buffer (4 °C) three times. […] All samples were shaken and centrifuged at 4000 rpm at 4 °C for 15 min and the supernatant was removed for future analysis by LC-MS/MS.
Enzyme activity (%) = PAR with compound/PAR vehicle × 100.
Estradiol-17β-glucuronide (substrate) was incubated with an OATP1B1-transfected HEK293 cell monolayer in the presence or absence of salidroside at concentrations up to 100 µM.

Data set [12] has as its system CYP3A4. Particulars: human, 48 h.

Chain of CYP2D6 (P10635 whole entry): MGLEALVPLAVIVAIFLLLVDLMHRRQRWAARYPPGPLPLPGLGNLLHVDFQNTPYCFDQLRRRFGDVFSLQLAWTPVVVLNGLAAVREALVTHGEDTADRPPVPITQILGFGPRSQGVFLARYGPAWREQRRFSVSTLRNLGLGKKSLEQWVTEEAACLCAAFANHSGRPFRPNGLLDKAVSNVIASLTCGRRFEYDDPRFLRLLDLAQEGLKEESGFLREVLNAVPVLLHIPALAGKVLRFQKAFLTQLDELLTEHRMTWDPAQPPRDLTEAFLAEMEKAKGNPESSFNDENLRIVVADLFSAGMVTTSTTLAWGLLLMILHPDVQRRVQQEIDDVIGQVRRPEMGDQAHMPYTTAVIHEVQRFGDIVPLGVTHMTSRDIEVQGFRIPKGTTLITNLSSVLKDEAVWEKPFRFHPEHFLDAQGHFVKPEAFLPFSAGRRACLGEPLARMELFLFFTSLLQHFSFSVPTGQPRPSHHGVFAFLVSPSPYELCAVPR

On to `OC[C@H]1O[C@@H](OCCc2ccc(O)cc2)[C@H](O)[C@@H](O)[C@@H]1O` [Salidroside], for which the “IC50 Shift” value in data set [1], in data set [2] and in [9] was “no shift” each time. Also, the “no observed adverse effect level (NOAEL)” value in data set [3] is recorded as no less than 2000 mg/kg/day. Also, the “inhibition of MAO-B” value in data set [4] is given as 35.8%. For the same compound, the IC50 (in general, the midpoint of a concentration-inhibition curve) in data set [5] was greater than 50 µM; in data set [8], greater than 50 µM; in [10] it was greater than 50 µM; in data set [11], greater than 100 µM. Further, the fold induction – broadly, the signal under treatment as a multiple of the control signal – at 48 h, 1 µM in [6] was 0.7. Also, the “inhibition of MAO-A” value in data set [7] is “inactive”. The same compound yielded an activity at 2 min, 100 µM in data set [11] (human) of 84.4%. Also, the inhibition (usually the share of the control response that was lost under treatment) at 2 min, 100 µM in data set [11] (human) is 15.5%. Further, the “mean % of control activity / inhibition of OATP1B1” value in [11] (up to concentrations of 33.3 mM, 33.3 µM) was “unchanged; also recorded: no inhibition”. Moreover, the “% Positive Control” value in data set [12] (3 µM) and in [12] (10 µM) was 0% in each case.
